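Briefly, cells in 96-well plates were exposed to five compound concentrations for 48 h, and endpoints were estimated by linear interpolation. Abbreviation: GI50, concentration required for 50% inhibition of growth.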 Activity calls are given as the source filed them. Rule as the data show it: active = GI50 up to about 1.1 µM and inactive = higher. Where only a bound is given, the exact number is not on record here.

What all share (assay): NCI-60 cell line screen, 48 h
For assay [1], the system named is RXF 393.
For assay [2], the system named is ACHN.
The subject of assay [3] is PC-3.
Assay [4] has as its system SR.
Assay [5] relates to K562.
Assay [6] has as its system UACC-62.
The subject of assay [7] is CAKI-1.
Assay [8] concerns DU-145.
Assay [9] concerns LOX IMVI.
For assay [10], the system named is SK-MEL-2.
In assay [11] the test system is HT-29.
For assay [12], the system named is HCT-15.
Assay [13] relates to EKVX.
Assay [14] has as its system SN12C.
Assay [15] relates to NCI-H460.
The test system of assay [16] is UO-31.
Assay [17] has as its system COLO 205.
Assay [18] deals with SF-539.
The subject of assay [19] is SK-OV-3.
For assay [20], the system named is HCC 2998.

As for `CC1CCC(C(=O)O)(C(Br)C(=O)O)CC1` (stereo not given), the GI50 in assay [1], in assay [2], in [3], in [4], in assay [5] and in [6] was > 100 µM (inactive) each time. Moreover, the GI50 in [7] is > 100 µM (inactive); in assay [8], > 100 µM (inactive); in assay [9], > 100 µM (inactive); in assay [10], > 100 µM (inactive); in assay [11] it was > 100 µM (inactive); in assay [12] it was over 100 µM. The GI50 in assay [13], in [14], in [15] and in assay [16] was > 100 µM (inactive) throughout.

On to `Cc1ccc(-n2cc(-c3ccc(Cl)cc3)c3c(NNC(=S)NCc4ccccc4)ncnc32)cc1`, for which the GI50 in assay [17] was 10.7 µM (inactive); in assay [1], 14.3 µM (inactive); in assay [2], 13.6 µM (inactive); in assay [3] it was 2.59 µM (inactive); in assay [4] it was 3.61 µM (inactive); in assay [5], 4.99 µM (inactive). Moreover, the GI50 in assay [6] was 18.1 µM (inactive); in assay [7], 5.46 µM (inactive); in assay [8], 24.9 µM (inactive); in assay [9], 5.06 µM (inactive); in assay [10], 3.17 µM (inactive); in assay [11], 14.3 µM (inactive). For the same compound, the GI50 in [18] was 13.6 µM (inactive); in [12] it was 6.08 µM; in [13] it was 13.1 µM (inactive); in assay [14], 7.21 µM (inactive); in [15], 2.07 µM (inactive); in [16], 10.1 µM (inactive). Besides, the GI50 in assay [19] was 16.3 µM (inactive).

Turning to `CCCCCCCCCCCC(=O)Oc1c(Cl)cc(Cl)c(OC(=O)C(=O)Oc2c(Cl)cc(Cl)c(OC(=O)CCCCCCCCCCC)c2Cl)c1Cl`, the GI50 in assay [17], in [1], in assay [2], in assay [3], in assay [4] and in [6] was > 100 µM (inactive) throughout. Moreover, the GI50 is > 100 µM (inactive) in assay [7]; > 100 µM (inactive) in assay [8]; > 100 µM (inactive) in [9]; > 10 µM (inactive) in assay [10]; > 100 µM (inactive) in assay [11]; > 100 µM (inactive) in assay [13]. Besides, the GI50 in [14], in assay [15], in [16] and in assay [19] was > 100 µM (inactive) throughout.

On to `CC(C)=CCC[C@](C)(O[C@@H]1O[C@H](CO)[C@@H](O)[C@H](O)[C@H]1O)[C@H]1CC[C@]2(C)[C@@H]1[C@H](O)C[C@@H]1[C@@]3(C)CC[C@H](O)C(C)(C)[C@@H]3[C@@H](O[C@@H]3O[C@H](CO)[C@@H](O)[C@H](O)[C@H]3O[C@@H]3O[C@@H](C)[C@H](O)[C@@H](O)[C@H]3O)C[C@]12C.CC(C)=CCC[C@](C)(O[C@@H]1O[C@H](CO)[C@@H](O)[C@H](O)[C@H]1O)[C@H]1CC[C@]2(C)[C@@H]1[C@H](O)C[C@@H]1[C@@]3(C)CC[C@H](O)C(C)(C)[C@@H]3[C@@H](O[C@@H]3O[C@H](CO)[C@@H](O)[C@H](O)[C@H]3O[C@@H]3O[C@H](CO)[C@@H](O)[C@H](O)[C@H]3O)C[C@]12C`, for which the GI50 is > 75 µM (inactive) in assay [17]; > 75 µM (inactive) in assay [2]; > 75 µM (inactive) in [3]; 29.2 µM (inactive) in assay [4]; > 75 µM (inactive) in assay [5]; > 75 µM (inactive) in [6]. Further, the GI50 in [7], in assay [8], in assay [9], in assay [10], in assay [11] and in assay [18] was > 75 µM (inactive) each time. Besides, the GI50 is over 75 µM in [12]; > 75 µM (inactive) in [13]; > 75 µM (inactive) in assay [14]; > 75 µM (inactive) in assay [20]; 7.5 µM (inactive) in [15]; > 75 µM (inactive) in [16]. The GI50 in assay [19] is > 75 µM (inactive).

The record behind these values is ChEMBL document CHEMBL1201862, “PubChem BioAssay data set” (2004).
